# Measurements as given in US20230277553A1, “THERAPEUTIC COMPOSITION OF CURE-PRO COMPOUNDS FOR TARGETED DEGRADATION OF BET DOMAIN PROTEINS, AND METHODS OF MAKING AND USAGE” (CORNELL UNIVERSITY, priority 2020, published 2023).
# “Also recorded” adds a separate entry of the source.
# Tests used:
# BRD4 [1] = target: T1, BRD4 (Homo sapiens, UniProt O60885); assay: CURE-PRO-mediated BRD4 degradation, Western blot, HeLa cells; assay type: cell-based; design: endogenous in cells; host or cells: HeLa; settings: 24 h; for BRD4 degradation, co-treatment with CRBN ligand 8047: 1:1 with 8047, 10 μM each; for BRD4 degradation, co-treatment with CRBN ligand 8048: 1:1 with 8048, 1-10 μM each; for BRD4 degradation, co-treatment with CRBN ligand 8049: 1:1 with 8049, 1-10 μM each; for BRD4 degradation, BRD ligand alone: BRD monomer alone
# Protocol: All cell lines were purchased from ATCC or DSMZ and grown at 37° C. with 5% CO2. Human HeLa cells were cultured in complete growth medium (Dulbecco's modified Eagle's medium (DMEM) supplemented with 10% FBS); MCF7 cells were cultured in complete growth medium (Dulbecco's modified Eagle's medium (DMEM) supplemented with 10% FBS and 0.01 mg/ml human recombinant insulin (Sigma Aldrich); Namalwa and MOLM-13 cells were cultured in complete growth medium (RPMI 1640 medium supplemented with 10% FBS); MV-4-11 were cultured in complete growth medium (Iscove's Modified Dulbecco's medium, supplemented with 10% FBS); HCT116 cells were cultured in complete growth medium (McCoy's 5a Medium supplemented with 10% FBS). For cellular degradation of BRD4 studies, cells were seeded in a 12-well plate at 70-80% confluency, allowed to attach overnight, and incubated with the indicated compounds for the indicated time. When indicated, a 15-minute pretreatment with 10 μM pomalidomide, 10 μM VHL298, 10 μM Nutlin3a, 1 μM MG-132 or 1 μM Carfilzomib was performed before the addition of CURE-PROs. For washout studies, after CURE-PRO treatment, media was aspirated and incubated with complete medium for the indicated time before lysis.
# Anti-BRD4 (13440, 1:1,000 dilution for Western Blot and 1:25 dilution for ProteinSimple); Anti-BRD2 (5848 1:1,000 dilution for Western Blot and 1:25 dilution for ProteinSimple); β-Actin (3700, 1:2,000 dilution for Western Blot), β-Actin (4970, 1:50 dilution for ProteinSimple) anti-mouse IgG-HRP, and anti-rabbit IgG-HRP antibodies were purchased Cell Signaling Technology. Anti-GAPDH (600-401-A33, 1:100 dilution for ProteinSimple) was purchased from Rockland Immunochemicals, Inc. Anti-BRD3 (sc-81202, 1:200 dilution for Western Blot) was purchased from Santa Cruz Biotechnology.
# HeLa, MCF7, or HCT116 cells (2.5-3×10^6) were treated for 24 hours with the indicated compounds solubilized in DMSO. The cells were washed in ice-cold PBS and were then lysed in RIPA lysis buffer (150 mM NaCl, 5 mM EDTA, 1% NP-40, 0.5% sodium deoxycholate, 0.1% SDS, 50 mM Tris, pH 8.0.) with Roche protease inhibitor complete cocktail and phosphatase inhibitors (10 mM sodium fluoride, 10 mM sodium pyrophosphate, 1 mM sodium orthovanadate and 20 mM β-glycerophosphate). The total protein concentrations were determined by Bradford Protein Assay and 10-20 μg of protein was loaded onto 4-15% Tris-Glycine gradient gels (Biorad). After standard gel electrophoresis, the separated proteins were transferred to PVDF membrane by wet transfer. The immunoblots were then blocked for 1 hour in 5% skim milk in TBST or 5% BSA in TBST, according to manufacturer's instructions, before an overnight incubation at 4° C. with indicated antibodies and membranes. Membranes were then incubated with the appropriate horseradish peroxidase-conjugated secondary antibodies (1:5,000 dilution) for 1 h at room temperature and the bands were visualized using the Clarity Max Western ECL Substrate (Biorad) and the ChemiDoc Imaging System (Biorad). Signal was detected with ECL Western Blotting Substrate (Pierce) and X-ray film processed with a Konica SRX-101 X-ray film processor or captured by Bio-Rad's Chemidoc Imaging system.
# HeLa cells (2.5×106) were treated for 24 hours with the sample compounds solubilized in DMSO. Compounds were added at 1-10 μM each. Standardized protein samples were electrophoresed and imaged as described in the immunoblotting description above. FIGS. 6-18 depicts the CURE-PRO-mediated BRD4 degradation for BRD monomers (JQ1 derivatives comprising of catechol linkers), and CRBN ligands, 8048 and 8049 (pomalidomide derivatives comprising boronic acid linkers) combined in a 1:1 ratio.
# HeLa cells (2.5×106) were treated for 24 hours with the compounds solubilized in DMSO. The compounds were added at 10 μM each. Standardized protein samples were electrophoresed and imaged as described in the immunoblotting section above. […]
# BRD4 [2] = target: T1, BRD4; assay: Summary of BRD4 degradation by CURE-PRO pairs, estimated from Western Blot or WES (Proteinsimple); assay type: cell-based; design: endogenous in cells; settings: for Degradation of BRD4 in combination with CRBN ligand [drawing 370] / Degradation of BRD4 in combination with CRBN ligand [drawing 371] / Degradation of BRD4 in combination with CRBN ligand [drawing 372]: Table 1; for Degradation of BRD4 in combination with CRBN ligand [drawing 370]: aromatic 1,2-diol- or hindered cis-1,2-diol-containing CRBN ligand, first drawing (8046); for Degradation of BRD4 in combination with CRBN ligand [drawing 371]: second drawing (8047); for Degradation of BRD4 in combination with CRBN ligand [drawing 407]: first drawing (by text: 8048); for Degradation of BRD4 in combination with CRBN ligand [drawing 372]: third drawing (8066)
# Excerpt: A black check mark indicates efficacy of 30% to 70% or higher protein degradation.
# [3] = Table 4, aryl-boronic acid-containing CRBN ligand
SMILES,"BRD4 degradation, co-treatment with CRBN ligand 8048 (BRD4 [1]; Western blot)","BRD4 degradation, co-treatment with CRBN ligand 8049 (BRD4 [1]; Western blot)",Degradation of BRD4 in combination with CRBN ligand [drawing 407] (BRD4 [2]; [3]),"BRD4 degradation, BRD ligand alone (BRD4 [1]; Western blot)",other results
"COc1ccc2c(c1)C(c1ccc(Cl)cc1)=N[C@@H](CC(=O)Nc1ccc(B(O)O)cc1)c1nnc(C)n1-2 [BRD-E74, (4-(2-((4S)-6-(4-chlorophenyl)-8-methoxy-1-methyl-4H-benzo[f][1,2,4]triazolo[4,3-a][1,4]diazepin-4-yl)acetamido)phenyl)boronic acid]",–,–,–,–,"BRD4 degradation, co-treatment with CRBN ligand 8046 (BRD4 [1]; 1:1 with 8046, 10 μM each, Western blot): causes degradation of BRD4; BRD4 degradation, co-treatment with CRBN ligand 8047 (BRD4 [1]; Western blot): causes degradation of BRD4; Degradation of BRD4 in combination with CRBN ligand [drawing 370] (BRD4 [2]): ✓ (A black check mark indicates efficacy of 30% to 70% or higher protein degradation)"
COc1ccc2c(c1)C(c1ccc(Cl)cc1)=N[C@@H](CC(=O)NCc1cccc(B(O)O)c1)c1nnc(C)n1-2 [BRD-E10],–,–,–,–,"Concentration at which BRD4 degradation is observed, co-dosed with 8046 (BRD4 [1]; 1:1 with 8046): 100 µM; Concentration at which complete BRD4 degradation is demonstrated, with 8047 (BRD4 [1]; 1:1 with 8047, tested 10 and 100 μM): 10 µM; Degradation of BRD4 in combination with CRBN ligand [drawing 371] (BRD4 [2]): ✓ (A black check mark indicates efficacy of 30% to 70% or higher protein degradation); Degradation of BRD4 in combination with CRBN ligand [drawing 370] (BRD4 [2]): ✓ (A black check mark indicates efficacy of 30% to 70% or higher protein degradation); Degradation of BRD4 in combination with VHL ligand [drawing 396] (BRD4 [2]; Table 3, aromatic 1,2-diol-containing VHL ligand, first drawing (by text: 8304)): ✓ (A black check mark indicates efficacy of 30% to 70% or higher protein degradation)"
"CCNC(=O)C[C@@H]1N=C(c2ccc(Cl)cc2)c2cc(OCCOCCOCCOCCOCCOCCNC(=O)c3ccc(O)c(O)c3)ccc2-n2c(C)nnc21 [BRD-N70, N-(17-(((4S)-6-(4-chlorophenyl)-4-(2-(ethylamino)-2-oxoethyl)-1-methyl-4H-benzo[f][1,2,4]triazolo[4,3-a][1,4]diazepin-8-yl)oxy)-3,6,9,12,15-pentaoxaheptadecyl)-3,4-dihydroxybenzamide]",causes degradation of BRD4; also recorded: Degradation is noted,no evidence of BRD4 degradation,✓ (A black check mark indicates efficacy of 30% to 70% or higher protein degradation),–,–
COc1ccc2c(c1)C(c1ccc(Cl)cc1)=N[C@@H](CC(=O)NCCOCCOCCNC(=O)c1ccc(B(O)O)cc1)c1nnc(C)n1-2 [BRD-E45],–,–,–,–,"BRD4 degradation, co-treatment with CRBN ligand 8066 (BRD4 [1]; 1:1 with 8066, 10 μM each (BRD-E10: 10 and 100 μM), Western blot): causes degradation of BRD4; Degradation of BRD4 in combination with CRBN ligand [drawing 372] (BRD4 [2]): ✓ (A black check mark indicates efficacy of 30% to 70% or higher protein degradation); Degradation of BRD4 in combination with VHL ligand [drawing 397] (BRD4 [2]; Table 3, aromatic 1,2-diol-containing VHL ligand, second drawing (8305)): ✓ (A black check mark indicates efficacy of 30% to 70% or higher protein degradation)"
"COc1ccc2c(c1)C(c1ccc(Cl)cc1)=N[C@@H](CC(=O)NCCNC(=O)/C=C/c1cccc(B(O)O)c1)c1nnc(C)n1-2 [BRD-E30, (3-((E)-3-((2-(2-((4S)-6-(4-chlorophenyl)-8-methoxy-1-methyl-4H-benzo[f][1,2,4]triazolo[4,3-a][1,4]diazepin-4-yl)acetamido)ethyl)amino)-3-oxoprop-1-en-1-yl)phenyl)boronic acid]",–,–,–,no change in expression,Degradation of BRD4 in combination with CRBN ligand [drawing 371] (BRD4 [2]): ✓ (A black check mark indicates efficacy of 30% to 70% or higher protein degradation); Degradation of BRD4 in combination with CRBN ligand [drawing 372] (BRD4 [2]): ✓ (A black check mark indicates efficacy of 30% to 70% or higher protein degradation)
CCNC(=O)C[C@@H]1N=C(c2ccc(Cl)cc2)c2cc(-c3ccc4cc(O)c(O)cc4c3)ccc2-n2c(C)nnc21 [BRD-N67],causes degradation of BRD4,causes degradation of BRD4,✓ (A black check mark indicates efficacy of 30% to 70% or higher protein degradation),no degradation of BRD4,"Degradation of BRD4 in combination with CRBN ligand [drawing 408] (BRD4 [2]; Table 4, aryl-boronic acid-containing CRBN ligand, second drawing (by text: 8049)): ✓ (A black check mark indicates efficacy of 30% to 70% or higher protein degradation)"
COc1ccc2c(c1)C(c1ccc(Cl)cc1)=N[C@@H](CC(=O)NCCOCCOCCOCCNC(=O)c1ccc(O)c(O)c1)c1nnc(C)n1-2 [BRD-N44],causes degradation of BRD4,–,✓ (A black check mark indicates efficacy of 30% to 70% or higher protein degradation),no degradation of BRD4,–
CCNC(=O)C[C@@H]1N=C(c2ccc(Cl)cc2)c2cc(OCCOCCOCCNC(=O)c3cccc(B(O)O)c3)ccc2-n2c(C)nnc21 [BRD-E42],–,–,–,–,"BRD4 degradation, co-treatment with CRBN ligand 8047 (BRD4 [1]; Western blot): causes degradation of BRD4; Degradation of BRD4 in combination with CRBN ligand [drawing 371] (BRD4 [2]): ✓ (A black check mark indicates efficacy of 30% to 70% or higher protein degradation)"
"CCNC(=O)C[C@@H]1N=C(c2ccc(Cl)cc2)c2cc(OCCOCCOCCOCCOCCOCCNC(=O)c3cccc(O)c3O)ccc2-n2c(C)nnc21 [BRD-N71, N-(17-(((4S)-6-(4-chlorophenyl)-4-(2-(ethylamino)-2-oxoethyl)-1-methyl-4H-benzo[f][1,2,4]triazolo[4,3-a][1,4]diazepin-8-yl)oxy)-3,6,9,12,15-pentaoxaheptadecyl)-2,3-dihydroxybenzamide]",causes degradation of BRD4; also recorded: Some selectivity for BRD-N71 and 8048 is noted,no evidence of BRD4 degradation,✓ (A black check mark indicates efficacy of 30% to 70% or higher protein degradation),no degradation of BRD4,"Degradation of BRD4 in combination with MDM2 ligand [drawing 424] (BRD4 [2]; Table 5, aryl-boronic acid-containing MDM2 ligand, second drawing (8312)): ✓ (A black check mark indicates efficacy of 30% to 70% or higher protein degradation)"
COc1ccc2c(c1)C(c1ccc(Cl)cc1)=N[C@@H](CC(=O)NCCOCCOCCOCCOCCNC(=O)c1ccc(O)c(O)c1)c1nnc(C)n1-2 [BRD-N69],causes degradation of BRD4; also recorded: Degradation is noted,no evidence of BRD4 degradation,✓ (A black check mark indicates efficacy of 30% to 70% or higher protein degradation),no degradation of BRD4,–
"CCNC(=O)C[C@@H]1N=C(c2ccc(Cl)cc2)c2cc(OCCCCC(=O)Nc3ccc(O)c(O)c3)ccc2-n2c(C)nnc21 [BRD-N22, 5-(((4S)-6-(4-chlorophenyl)-4-(2-(ethylamino)-2-oxoethyl)-1-methyl-4H-benzo[f][1,2,4]triazolo[4,3-a][1,4]diazepin-8-yl)oxy)-N-(3,4-dihydroxyphenyl)pentanamide]",causes degradation of BRD4; also recorded: Degradation is noted,no evidence of BRD4 degradation,✓ (A black check mark indicates efficacy of 30% to 70% or higher protein degradation),no degradation of BRD4,–
